Test results: US10865188B2, “Dibenzo azepine compounds and their use in the treatment of otic diseases and disorders” (Pipeline Therapeutics, Inc., priority 2015, dated 2020)
Where two headings read alike, the source gives them in different places.

How the values were obtained:
HES5 = test: Human neural stem cell assay, Hes5 gene expression (real-time PCR); format: cell-based; settings: human neural stem cells, 7 point CRC, read-out: hNSC HES5 IC50
Method: (§1) Neural stem cells (NSC) were derived from embryonic stem cells using a published protocol (Yuan et al., Mar. 2, 2011, PLoS ONE, 6(3):e17540). Cells were sorted and characterized at passage 3 and were expanded. Cells were then frozen at passage 5. Cells were maintained in NSC media (DMEM/F12, N2 (1×), B27(1×) (Invitrogen), and Pen/Strep (1×) (Life Technologies) with 20 ng/ml bFGF (BD Bioscience/Corning)). On day 1, cells were plated in 96 well plates that have been previously coated with poly-ornithin and laminin, 60,000 cells/well in 100 μl of media. On day 2, spent media was removed, and 180 μl of fresh media was added to the cells. Later that same day (day 2), cells were treated with 20 μl of NSC media containing test compounds (7 point CRC). On day 3, spent media was removed and 140 μl of RLT/bME was added to the cells. RNA was extracted using the QiaCube (Qiagen®, Germantown, Md., USA) using the total RNA extraction+DNAse protocol. RNA was then reverse-transcribed to cDNA using iScript (Bio-Rad, Hercules, Calif., USA). cDNA was then used for real-time PCR analysis using iTaq Sybergreen (BioRad). Expression of Atoh1, Hes5, Hes1, Myosin7a genes was evaluated using CFX96 or CFX384 (Bio-Rad). HPRT1 was used as a reference gene. Analysis was done using Microsoft® Excel® and CBIS (ChemInnovation Software, Inc., San Diego, Calif., USA). […]

[1] = Guinea pig PK after transtympanic delivery (perilymph and cochlea, LC/MS/MS); format: in vivo; settings: for concentration at 1 day / concentration at 7 day / concentration at 14 day / concentration at 3 day / concentration at 21 day / concentration at 28 day: male, Hartley, other: transtympanic, 30 μL, 30 μL transtympanic; for concentration at 1 day: Day 1, LLOQ = 0.08 μM; for concentration at 7 day: Day 7, LLOQ = 0.08 μM; for concentration at 14 day: Day 14, LLOQ = 0.08 μM; for concentration at 3 day: Day 3, LLOQ = 0.08 μM; for concentration at 21 day: Day 21, LLOQ = 0.08 μM; for concentration at 28 day: Day 28, LLOQ = 0.08 μM
Text: Male Hartley guinea pigs (300-350 g) were anesthetized with ketamine and xylazine. Thirty microliters of an aqueous pharmaceutical composition of the instant embodiments was delivered transtympanically to deposit the drug to the round window membrane. Delivery was unilateral. The animals were placed in a warm chamber in a lateral recumbent position keeping the dosed ear side up until they recover from anesthesia.
At various timepoints after administration, the animals were euthanized by CO2 inhalation. Blood and CSF were collected and stored at −80° C. The animals were decapitated, the temporal bones removed and the bulla opened to expose the otic capsule. Ipsilateral and contralateral perilymph were collected from the apex using a microcapillary tube. The ipsilateral cochlea was removed from the otic capsule and stored at −80° C. All tissues collected were analyzed using LC/MS/MS for test compound concentration as follows. Analytical standards were prepared by spiking known concentrations of the test compound stock solutions into matrices such as plasma or artificial CSF. Fixed amounts of tissues collected and spiked standards were precipitated with acetonitrile containing buspirone as an internal standard. The precipitated samples were centrifuged at 4000 g for 10 minutes at 4° C. The supernatants were analyzed using LC-MS/MS. The LC-MS/MS system was set up using the AB Sciex 4000 Qtrap (AB Sciex, Framingham, Mass.) equipped with Agilent 1200 series HPLC and CTC PAL Autosampler (Agilent Technologies, Santa Clara, Calif.).
Liquid compositions described herein were evaluated using the method described in Part E of the Biological Function section provided above. The liquid compositions prepared as described in Example 5(a)-5(d) were each drawn into a 1 mL syringe. Using the filled 1 mL syringe, the liquid composition was back-filled at 5° C. into a 100 μL Hamilton syringe adapted with 28 gauge needle. The Hamilton syringe was then allowed to warm to room temperature.
Male Hartley guinea pigs (300-350 g) were anesthetized with ketamine and xylazine. Thirty microliters of the above liquid composition were delivered transtympanically to deposit the drug to the round window membrane. The delivery was unilateral. The animals were placed in a warm chamber in a lateral recumbent position keeping the dosed ear side up until they recovered from anesthesia.
At various timepoints after administration, the animals were euthanized by CO2 inhalation. Blood and cerebrospinal fluid were collected and stored at −80° C. The animals were decapitated, the temporal bones removed and the bulla were opened to expose the otic capsule. Ipsilateral and contralateral perilymph were collected from the apex using a microcapillary tube. The ipsilateral cochlea was removed from the otic capsule and was stored at −80° C. All tissues collected were analyzed using LC/MS/MS as described in Part E of the Biological Function section above.
The concentrations of Compound I and Compound II were measured using LC/MS/MS in both the perilymph fluid and the cochlea tissue after a transtympanic injection of an instant formulation of either the crystalline form or the amorphous form at various time points. […] Concentration of the instant compounds in the perilymph and/or cochlea tissue was above the human NSC EC50 for Atoh1, an indicator that the subject compounds may be efficacious in hair cell regeneration and hearing restoration in human. […] Table 3 below lists the results for the studies using aqueous formulations of crystalline Compound I while Table 4 below lists those for aqueous formulations of crystalline Compound II. The results for aqueous formulations of crystalline Compound I are also graphically shown in FIG. 5A and FIG. 5B while the results for aqueous formulations of crystalline Compound II are graphically shown in FIG. 6A and FIG. 6B.

Atoh1 = test: Human neural stem cell assay, Atoh1 gene expression (real-time PCR); format: cell-based; settings: human neural stem cells, 7 point CRC, read-out: hNSC Atoh1 EC50
Method: as §1

mice = test: Auditory brainstem response (ABR) hearing threshold; format: in vivo; settings: formulations of Examples 3(c) and 3(d) (2% w/v crystalline, poloxamer 407)
Method: Surgery was performed on naïve mice or mice with noise or pharmacologically-damaged ears. The animals were anesthetized with isoflurane and an 8 mm retroauricular incision was made to the lower caudal edge of the pinna. The skin was retracted and the fatty tissue was blunt dissected away from where the facial nerve and muscle come together. The muscle was retracted to reveal an area in the tympanic bulla where the bone was thin. A 30 g needle was used to drill a hole in the exposed thin portion of the otic bulla. A Hamilton syringe equipped with a 32 g blunt needle was inserted into the opening of the otic bulla. The drug formulation was delivered by injection and the needle removed. Wound closure was made with tissue glue.
Naïve mice or mice at various times after either noise or pharmacological deafening were anesthetized with ketamine/xylazine/acepromazine and the auditory brainstem response was determined in both ears using a Tucker Davis (Alachua, Fla.) RZ6 apparatus. The mice were exposed to clicks or pure tones of 4, 8, 16, 24 and 32 kHz at 90-10 dB in 10 dB descending steps and the hearing threshold was determined.

[2] = cochlea, Amorphous form (Example 5(b)), read-out: Cochlea Average concentration
[3] = cochlea, Crystalline form (Example 5(a)), read-out: Cochlea Average concentration
[4] = perilymph, Amorphous form (Example 5(b)), read-out: perilymph Average concentration
[5] = perilymph, Crystalline form (Example 5(a)), read-out: Perilymph Average concentration

C[C@H](OC(=O)NCC(F)(F)C(F)(F)F)C(=O)N[C@@H]1C(=O)Nc2ccccc2-c2ccccc21 [Compound I, (2,2,3,3,3-pentafluoropropyl)-carbamic acid (S)-1-((S)-6-oxo-6,7-dihydro-5H-dibenzo[b,d]azepin-7-ylcarbamoyl) ethyl ester]
IC50 (HES5): 288 nM
concentration in the perilymph and the cochlea compared with the human NSC EC50 for Atoh1 ([1]; dosed as the amorphous form, transtympanic): above the human NSC EC50 for Atoh1 at 1 day and 7 days
concentration in the perilymph and the cochlea compared with the human NSC EC50 for Atoh1 ([1]; dosed as the crystalline form, transtympanic): above the NSC EC50 from day 1 to day 28
concentration at 1 day [1, 2]: 211 µM
concentration at 7 day [1, 2]: 28.4 µM
concentration at 14 day [1, 2]: 0.04 µM
concentration at 1 day [1, 3]: 69 µM
concentration at 3 day [1, 3]: 25.6 µM
concentration at 7 day [1, 3]: 4.1 µM
concentration at 14 day [1, 3]: 9 µM
concentration at 21 day [1, 3]: 6.2 µM
concentration at 28 day [1, 3]: 12.8 µM
concentration at 1 day [1, 4]: 33.3 µM
concentration at 7 day [1, 4]: 14 µM
concentration at 14 day [1, 4]: 0 µM
concentration at 1 day [1, 5]: 395 µM
concentration at 3 day [1, 5]: 568 µM
concentration at 7 day [1, 5]: 18.9 µM
concentration at 14 day [1, 5]: 116 µM
concentration at 21 day [1, 5]: 18.2 µM
concentration at 28 day [1, 5]: 10.4 µM
exposure to the inner ear, crystalline formulation versus respective amorphous formulation ([1]; transtympanic, formulations of Example 5(a)-5(d)): longer exposure
EC50 (Atoh1): 625 nM
ABR Threshold Improvement (mice; 16 kHz): 7 dB
ABR Threshold Improvement (mice; 24 kHz): 10 dB
ABR Threshold Improvement (mice; 32 kHz): 8 dB
